The target in test [1] is T1, PaTrm5a (Pyrococcus abyssi, UniProt Q9V2G1).
T1 construct: gene taw22
Briefly: X-ray crystal structure, cocrystallisation, […] Å. In kind it is binding. The settings on record: PEG 3350, HEPES pH 7.5, Ca(OAc)2, KCl, 25 °C; SAM site in D3.

The target in test [2] is T1, PaTrm5a. Briefly: X-ray crystal structure, cocrystallisation with SAM (MTA as its degradation product), […] Å. In kind it is binding. The settings on record: PEG 3350, HEPES pH 7.5, Ca(OAc)2, KCl, 25 °C; SAM site in D3.

This is an account of results in article PMC5024318, “Crystal structures of the bifunctional tRNA methyltransferase Trm5a” (Scientific Reports, 2016).

T1 sequence (Q9V2G1 whole entry): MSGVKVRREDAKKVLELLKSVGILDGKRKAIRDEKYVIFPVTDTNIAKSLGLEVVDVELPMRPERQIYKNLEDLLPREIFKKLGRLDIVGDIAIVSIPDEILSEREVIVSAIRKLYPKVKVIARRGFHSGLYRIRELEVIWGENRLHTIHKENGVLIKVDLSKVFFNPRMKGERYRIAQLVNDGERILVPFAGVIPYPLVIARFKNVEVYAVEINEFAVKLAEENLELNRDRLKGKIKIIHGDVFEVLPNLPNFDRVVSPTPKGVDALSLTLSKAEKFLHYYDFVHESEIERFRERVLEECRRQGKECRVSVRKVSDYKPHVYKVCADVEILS

Consider `Nc1ncnc2c1ncn2[C@@H]1O[C@H](CSCC[C@H](N)C(=O)O)[C@@H](O)[C@H]1O` [SAH, S-adenosyl-L-homocysteine], for which, on PaTrm5a [1], the “X-ray crystal structure, cocrystallisation, 2.00 Å” value was “the adenosine moiety and the methionine group are specifically recognised by hydrogen bonding interactions”.

As to `CSC[C@H]1O[C@@H](n2cnc3c(N)ncnc32)[C@H](O)[C@@H]1O` [MTA, 5′-methylthioadenosine], at PaTrm5a [2], the “X-ray crystal structure, cocrystallisation with SAM (MTA as its degradation prod)” value was “MTA fits well in the ligand-binding pocket, and interacts with the enzyme”.
